Results as given in ChEMBL document CHEMBL1153648, “1,4-Benzodiazepin-2-one derived neurokinin-1 receptor antagonists” (Bioorg Med Chem Lett, 1997).

Legend:
Substance-P receptor [1] = target: T1, Substance-P receptor (Homo sapiens, UniProt P25103); experiment: Tested for affinity against NK-1(Neurokinin-1) receptor expressed as pKi
[2] = target: T2, Cholecystokinin receptor type A (Homo sapiens, UniProt P32238); experiment: Concentration required for 50% inhibition of cholecystokinin A(CCK A)
T2 sequence (P32238 whole entry): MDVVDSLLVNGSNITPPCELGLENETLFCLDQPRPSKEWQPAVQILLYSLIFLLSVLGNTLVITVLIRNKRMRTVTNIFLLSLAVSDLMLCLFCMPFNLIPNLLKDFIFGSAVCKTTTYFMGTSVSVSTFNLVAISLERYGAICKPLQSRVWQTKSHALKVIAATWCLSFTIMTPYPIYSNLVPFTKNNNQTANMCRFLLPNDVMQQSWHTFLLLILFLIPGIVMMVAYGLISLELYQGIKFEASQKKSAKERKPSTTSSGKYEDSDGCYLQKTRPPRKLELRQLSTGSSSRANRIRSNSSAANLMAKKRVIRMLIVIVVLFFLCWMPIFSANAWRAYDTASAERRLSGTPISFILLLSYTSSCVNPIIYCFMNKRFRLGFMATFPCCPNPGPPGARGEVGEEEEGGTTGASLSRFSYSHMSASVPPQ

Substance-P receptor [3] = target: T1, Substance-P receptor; experiment: Concentration required for 50% inhibition of neurokinin-1 receptor

T1 sequence (P25103 whole entry): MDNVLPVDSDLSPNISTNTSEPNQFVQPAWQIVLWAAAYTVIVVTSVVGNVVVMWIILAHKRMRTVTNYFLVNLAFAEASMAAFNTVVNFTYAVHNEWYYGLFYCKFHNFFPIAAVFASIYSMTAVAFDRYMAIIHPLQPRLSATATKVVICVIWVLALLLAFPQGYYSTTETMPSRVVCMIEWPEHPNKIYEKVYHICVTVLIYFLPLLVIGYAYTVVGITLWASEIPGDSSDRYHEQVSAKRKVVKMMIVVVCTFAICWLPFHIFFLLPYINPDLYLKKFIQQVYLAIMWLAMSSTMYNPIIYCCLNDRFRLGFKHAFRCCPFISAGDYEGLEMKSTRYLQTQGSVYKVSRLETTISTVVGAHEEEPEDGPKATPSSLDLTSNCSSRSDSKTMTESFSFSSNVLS

SMILES	Ki (Substance-P receptor [1])	also measured
O=C1CN(C(=O)NCc2cc(C(F)(F)F)cc(C(F)(F)F)c2)C(c2ccccc2)c2ccccc2N1 (stereo not given)	631 nM	–
CN(Cc1cc(C(F)(F)F)cc(C(F)(F)F)c1)C(=O)N1CC(=O)Nc2ccccc2C1CN1CCOCC1 (stereo not given)	794 nM	–
CCCCCN(CCCCC)C(=O)C(Cc1c[nH]c2ccccc12)NC(=O)c1ccc(Cl)c(Cl)c1 (stereo not given)	–	IC50 [2]: 190 nM
CC1c2ccccc2N(C)C(=O)CN1C(=O)N(C)Cc1cc(C(F)(F)F)cc(C(F)(F)F)c1 (stereo not given)	1000 nM	–
CC(=O)NC(Cc1c[nH]c2ccccc12)C(=O)N(C)Cc1ccccc1 (stereo not given)	–	IC50 (Substance-P receptor [3]): 750 nM

Further lines, with some results ahead:

Ki (Substance-P receptor [1])	SMILES	also measured
10 nM	CN(Cc1cc(C(F)(F)F)cc(C(F)(F)F)c1)C(=O)N1CC(=O)Nc2ccccc2C1c1ccccc1 (stereo not given)	–
39.8 nM	CC1c2ccccc2NCCN1C(=O)N(C)Cc1cc(C(F)(F)F)cc(C(F)(F)F)c1 (stereo not given)	–
316 nM	COC(=O)C1c2ccccc2NC(=O)CN1C(=O)N(C)Cc1cc(C(F)(F)F)cc(C(F)(F)F)c1 (stereo not given)	–
31.6 nM	CC1c2ccccc2NC(=O)CN1C(=O)N(C)Cc1cc(C(F)(F)F)cc(C(F)(F)F)c1 (stereo not given)	–
1000 nM	CN(Cc1ccccc1)C(=O)N1CC(=O)Nc2ccccc2C1c1ccccc1 (stereo not given)	–
